Data from patent US7396946B2, “Compound for treatment of external secretion disorders” (Sucampo AG, priority 1999, dated 2008).

Tested on: normal rabbits
Assay: Effect on whole tear secretion of normal rabbits, rate of increase (Test Example 5)
Format: in vivo, Male Japanese albino rabbits
Conditions: 30 μl/eye single, 2 hours after the instillation compared with before (0 hour), 4 eyes
Experimental: Male Japanese albino rabbits were used.
(2) Method of Administration
Ophthalmic solution comprising an active ingredient of the present invention was prepared and used as a test composition.
Each of the compositions was instilled to the eye singly at the amount of 30 μl/eye.
Amount of the Tear Secretion
Before (0 hour) and 2 hours after the instillation, the whole tear secretion was determined.
Under no anesthetization, one edge of the Schirmer's test strip (Showa Yakuhin Kako Co., Ltd.) was inserted into the conjunctival sac of the each test animal. One minute after, the strip was removed and the length of the moisted part was read from the scale provided on the strip to determine the amount of whole tear secretion.
The rate (%) of increased amount of whole tear secretion was calculated at the 2 hours after the instillation compared with the before (0 hour).

2-decarboxy-2-(2-carboxyethyl)-13,14-dihydro difluoro-PGE1 [Compound 3]
Rate of the increased whole tear secretion (10 μg/ml ophthalmic solution): 52.0%

CCCC(F)(F)C(=O)C=CCC1C(O)CC(=O)C1CCCCCCC(=O)OC (centres unmarked) [Compound 1, 15-dehydroxy-13,14-dihydro-14,15-dehydro-16keto-17,17-difluoro-PGE1-methyl ester]
Rate of the increased whole tear secretion (30 μg/ml ophthalmic solution): 40.7%

CCCCCCC(F)(F)C(=O)CCC1C(O)CC(=O)C1CCCCCCC(=O)O (centres unmarked) [Compound 2, 13,14-dihydro-15-keto-16,16-difluoro-20-ethyl-PGE1]
Rate of the increased whole tear secretion (10 μg/ml ophthalmic solution): 52.5%

CCCCC(F)(F)C(=O)CCC1C(O)CC(O)C1C/C=C\CCCC(=O)OC (centres unmarked) [Compound 4, 13,14-dihydro-15-keto-16,16-difluoro-PGF2a-Methyl ester]
Rate of the increased whole tear secretion (3 ug/ml ophthalmic solution): 61.8%

CCCCC(F)(F)C(=O)CCC1CCC(=O)C1CCCCCCC(=O)O (centres unmarked) [Compound 5, 11-dehydroxy-13,14-dihydro-15-keto-16,16-difluoro-PGE1]
Rate of the increased whole tear secretion (3 ug/ml ophthalmic solution): 43.5%

CCCCCC(=O)CC[C@H]1[C@H](O)CC(=O)[C@@H]1CCCCCCC(=O)O [Compound 6, 13,14-dihydro-15-keto-PGE1]
Rate of the increased whole tear secretion (100 μg/ml ophthalmic solution): 44.0%

CCCCCCC(F)(F)C(=O)CCC1C(O)CC(=O)C1CCCCCCCCC(=O)OC(C)C (centres unmarked) [Compound 7, 2-decarboxy-2-(2-carboxyethyl)-13,14-dihydro 15-keto-16,16-difluoro-20-ethyl-PGE1-isopropyl ester]
Rate of the increased whole tear secretion (2O00 μg/ml ophthalmic solution): 56.9%

CCCCC(F)(F)C(=O)CCC1C(O)CC(=O)C1C/C=C\CCCC(=O)O (centres unmarked) [Compound 8, 13,14-dihydro-15-keto-16,16-difluoro-PGE2]
Rate of the increased whole tear secretion (1 μg/ml ophthalmic solution): 24.8%
